Experimental data: ChEMBL document CHEMBL5634117 (Eur J Med Chem, 2023)

How the values were obtained:
CCRF-CEM = assay: Growth inhibition of human CCRF-CEM cells assessed as reduction in cell viability measured after 48 hrs by SRB assay; assay type: functional
HL-60(TB) = assay: Growth inhibition of human HL-60(TB) cells assessed as reduction in cell viability measured after 48 hrs by SRB assay; assay type: functional
MOLT-4 = assay: Growth inhibition of human MOLT-4 cells assessed as reduction in cell viability measured after 48 hrs by SRB assay; assay type: functional
A549 = assay: Growth inhibition of human A549 cells assessed as reduction in cell viability measured after 48 hrs by SRB assay; assay type: functional
EKVX = assay: Growth inhibition of human EKVX cells assessed as reduction in cell viability measured after 48 hrs by SRB assay; assay type: functional
HOP-92 = assay: Growth inhibition of human HOP-92 cells assessed as reduction in cell viability measured after 48 hrs by SRB assay; assay type: functional
NCI-H226 = assay: Growth inhibition of human NCI-H226 cells assessed as reduction in cell viability measured after 48 hrs by SRB assay; assay type: functional
NCI-H460 = assay: Growth inhibition of human NCI-H460 cells assessed as reduction in cell viability measured after 48 hrs by SRB assay; assay type: functional
NCI-H522 = assay: Growth inhibition of human NCI-H522 cells assessed as reduction in cell viability measured after 48 hrs by SRB assay; assay type: functional
COLO 205 = assay: Growth inhibition of human COLO 205 cells assessed as reduction in cell viability measured after 48 hrs by SRB assay; assay type: functional
HCC 2998 = assay: Growth inhibition of human HCC 2998 cells assessed as reduction in cell viability measured after 48 hrs by SRB assay; assay type: functional
HCT-15 = assay: Growth inhibition of human HCT-15 cells assessed as reduction in cell viability measured after 48 hrs by SRB assay; assay type: functional
HT-29 = assay: Growth inhibition of human HT-29 cells assessed as reduction in cell viability measured after 48 hrs by SRB assay; assay type: functional
KM12 = assay: Growth inhibition of human KM12 cells assessed as reduction in cell viability measured after 48 hrs by SRB assay; assay type: functional
SW-620 = assay: Growth inhibition of human SW620 cells assessed as reduction in cell viability measured after 48 hrs by SRB assay; assay type: functional
SF-268 = assay: Growth inhibition of human SF-268 cells assessed as reduction in cell viability measured after 48 hrs by SRB assay; assay type: functional
SF-295 = assay: Growth inhibition of human SF-295 cells assessed as reduction in cell viability measured after 48 hrs by SRB assay; assay type: functional
SF-539 = assay: Growth inhibition of human SF-539 cells assessed as reduction in cell viability measured after 48 hrs by SRB assay; assay type: functional
SNB-19 = assay: Growth inhibition of human SNB-19 cells assessed as reduction in cell viability measured after 48 hrs by SRB assay; assay type: functional
LOX IMVI = assay: Growth inhibition of human LOX IMVI cells assessed as reduction in cell viability measured after 48 hrs by SRB assay; assay type: functional
Malme-3M = assay: Growth inhibition of human Malme-3M cells assessed as reduction in cell viability measured after 48 hrs by SRB assay; assay type: functional
M14 = assay: Growth inhibition of human M14 cells assessed as reduction in cell viability measured after 48 hrs by SRB assay; assay type: functional
MDA-MB-435 = assay: Growth inhibition of human MDA-MB-435 cells assessed as reduction in cell viability measured after 48 hrs by SRB assay; assay type: functional
SK-MEL-2 = assay: Growth inhibition of human SK-MEL-2 cells assessed as reduction in cell viability measured after 48 hrs by SRB assay; assay type: functional
SK-MEL-28 = assay: Growth inhibition of human SK-MEL-28 cells assessed as reduction in cell viability measured after 48 hrs by SRB assay; assay type: functional
SK-MEL-5 = assay: Growth inhibition of human SK-MEL-5 cells assessed as reduction in cell viability measured after 48 hrs by SRB assay; assay type: functional
UACC-62 = assay: Growth inhibition of human UACC-62 cells assessed as reduction in cell viability measured after 48 hrs by SRB assay; assay type: functional
IGROV-1 = assay: Growth inhibition of human IGROV-1 cells assessed as reduction in cell viability measured after 48 hrs by SRB assay; assay type: functional
OVCAR-8 = assay: Growth inhibition of human OVCAR-8 cells assessed as reduction in cell viability measured after 48 hrs by SRB assay; assay type: functional
NCI/ADR-RES = assay: Growth inhibition of human NCI/ADR-RES cells assessed as reduction in cell viability measured after 48 hrs by SRB assay; assay type: functional
786-0 = assay: Growth inhibition of human 786-0 cells assessed as reduction in cell viability measured after 48 hrs by SRB assay; assay type: functional
A498 = assay: Growth inhibition of human A498 cells assessed as reduction in cell viability measured after 48 hrs by SRB assay; assay type: functional
ACHN = assay: Growth inhibition of human ACHN cells assessed as reduction in cell viability measured after 48 hrs by SRB assay; assay type: functional
CAKI-1 = assay: Growth inhibition of human CAKI-1 cells assessed as reduction in cell viability measured after 48 hrs by SRB assay; assay type: functional
RXF 393 = assay: Growth inhibition of human RXF 393 cells assessed as reduction in cell viability measured after 48 hrs by SRB assay; assay type: functional
TK-10 = assay: Growth inhibition of human TK-10 cells assessed as reduction in cell viability measured after 48 hrs by SRB assay; assay type: functional
PC-3 = assay: Growth inhibition of human PC-3 cells assessed as reduction in cell viability measured after 48 hrs by SRB assay; assay type: functional
DU-145 = assay: Growth inhibition of human DU-145 cells assessed as reduction in cell viability measured after 48 hrs by SRB assay; assay type: functional
MCF7 = assay: Growth inhibition of human MCF7 cells assessed as reduction in cell viability measured after 48 hrs by SRB assay; assay type: functional
MDA-MB-231 = assay: Growth inhibition of human MDA-MB-231 cells assessed as reduction in cell viability measured after 48 hrs by SRB assay; assay type: functional
Hs-578T = assay: Growth inhibition of human Hs-578T cells assessed as reduction in cell viability measured after 48 hrs by SRB assay; assay type: functional
BT-549 = assay: Growth inhibition of human BT-549 cells assessed as reduction in cell viability measured after 48 hrs by SRB assay; assay type: functional
T47D = assay: Growth inhibition of human T47D cells assessed as reduction in cell viability measured after 48 hrs by SRB assay; assay type: functional
[1] = biological target: T1, Mitogen-activated protein kinase 8 (Homo sapiens, UniProt P45983); assay: Inhibition of human JNK1 at 10 uM in presence of ATP relative to control
T1 sequence (P45983 whole entry): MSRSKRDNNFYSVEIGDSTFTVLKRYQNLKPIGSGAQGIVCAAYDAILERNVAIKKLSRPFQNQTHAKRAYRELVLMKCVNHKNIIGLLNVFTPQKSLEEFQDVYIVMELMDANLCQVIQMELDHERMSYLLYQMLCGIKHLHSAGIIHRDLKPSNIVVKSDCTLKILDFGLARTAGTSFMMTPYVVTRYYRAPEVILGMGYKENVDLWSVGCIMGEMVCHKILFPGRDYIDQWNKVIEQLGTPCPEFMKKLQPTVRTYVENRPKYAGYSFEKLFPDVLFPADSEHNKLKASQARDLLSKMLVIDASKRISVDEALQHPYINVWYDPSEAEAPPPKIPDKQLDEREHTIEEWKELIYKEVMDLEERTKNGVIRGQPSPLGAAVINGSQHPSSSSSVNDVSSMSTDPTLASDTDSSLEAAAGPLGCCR

[2] = biological target: Mitogen-activated protein kinase 9 (Homo sapiens, UniProt P45984); assay: Inhibition of human JNK2 at 10 uM in presence of ATP relative to control
Sequence of Mitogen-activated protein kinase 9 (P45984 whole entry, looked up): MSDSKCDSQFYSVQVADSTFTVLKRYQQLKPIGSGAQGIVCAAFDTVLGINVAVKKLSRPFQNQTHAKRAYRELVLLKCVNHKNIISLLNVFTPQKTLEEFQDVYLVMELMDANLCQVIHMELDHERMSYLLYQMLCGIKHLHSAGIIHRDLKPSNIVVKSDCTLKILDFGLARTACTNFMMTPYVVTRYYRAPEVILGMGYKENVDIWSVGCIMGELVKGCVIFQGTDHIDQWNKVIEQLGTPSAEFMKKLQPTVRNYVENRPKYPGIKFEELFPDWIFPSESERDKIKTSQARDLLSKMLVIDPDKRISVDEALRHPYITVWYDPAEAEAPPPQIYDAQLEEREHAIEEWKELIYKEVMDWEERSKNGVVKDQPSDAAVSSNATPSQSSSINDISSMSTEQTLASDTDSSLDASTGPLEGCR

[3] = biological target: T1, Mitogen-activated protein kinase 8; assay: Inhibition of human JNK1 in presence of ATP

Structure (SMILES): CC(C)(C)n1cc(-c2ccnc(NCCCNS(=O)(=O)c3ccc(Br)cc3)c2)c(-c2cccc(O)c2)n1
- GI50 (CCRF-CEM): 2260 nM
- GI50 (HL-60(TB)): 2720 nM
- GI50 (MOLT-4): 2300 nM
- GI50 (A549): 2110 nM
- GI50 (EKVX): 1950 nM
- GI50 (HOP-92): 1560 nM
- GI50 (NCI-H226): 2310 nM
- GI50 (NCI-H460): 1990 nM
- GI50 (NCI-H522): 2130 nM
- GI50 (COLO 205): 1850 nM
- GI50 (HCC 2998): 1920 nM
- GI50 (HCT-15): 1480 nM
- GI50 (HT-29): 1420 nM
- GI50 (KM12): 2110 nM
- GI50 (SW-620): 1830 nM
- GI50 (SF-268): 2400 nM
- GI50 (SF-295): 1710 nM
- GI50 (SF-539): 1700 nM
- GI50 (SNB-19): 2110 nM
- GI50 (LOX IMVI): 1770 nM
- GI50 (Malme-3M): 1670 nM
- GI50 (M14): 1780 nM
- GI50 (MDA-MB-435): 1820 nM
- GI50 (SK-MEL-2): 2130 nM
- GI50 (SK-MEL-28): 1790 nM
- GI50 (SK-MEL-5): 1520 nM
- GI50 (UACC-62): 1590 nM
- GI50 (IGROV-1): 1910 nM
- GI50 (OVCAR-8): 2430 nM
- GI50 (NCI/ADR-RES): 2210 nM
- GI50 (786-0): 1660 nM
- GI50 (A498): 1330 nM
- GI50 (ACHN): 1990 nM
- GI50 (CAKI-1): 2160 nM
- GI50 (RXF 393): 1460 nM
- GI50 (TK-10): 2510 nM
- GI50 (PC-3): 1600 nM
- GI50 (DU-145): 2100 nM
- GI50 (MCF7): 1880 nM
- GI50 (MDA-MB-231): 1740 nM
- GI50 (Hs-578T): 2240 nM
- GI50 (BT-549): 1500 nM
- GI50 (T47D): 2480 nM
- inhibition [1]: 98.8%
- inhibition [2]: 99.3%
- IC50 [3]: 97.8 nM

Structure (SMILES): CC(C)(C)n1cc(-c2ccnc(NCCCNS(=O)(=O)c3cccc4ccccc34)c2)c(-c2cccc(O)c2)n1
- GI50 (CCRF-CEM): 2440 nM
- GI50 (HL-60(TB)): 2680 nM
- GI50 (MOLT-4): 2000 nM
- GI50 (A549): 2290 nM
- GI50 (EKVX): 2130 nM
- GI50 (HOP-92): 1710 nM
- GI50 (NCI-H226): 1970 nM
- GI50 (NCI-H460): 1930 nM
- GI50 (NCI-H522): 1990 nM
- GI50 (COLO 205): 1890 nM
- GI50 (HCC 2998): 1870 nM
- GI50 (HCT-15): 1530 nM
- GI50 (HT-29): 1270 nM
- GI50 (KM12): 2340 nM
- GI50 (SW-620): 1810 nM
- GI50 (SF-268): 2770 nM
- GI50 (SF-295): 1800 nM
- GI50 (SF-539): 1830 nM
- GI50 (SNB-19): 2630 nM
- GI50 (LOX IMVI): 1730 nM
- GI50 (Malme-3M): 1510 nM
- GI50 (M14): 1680 nM
- GI50 (MDA-MB-435): 1760 nM
- GI50 (SK-MEL-2): 1880 nM
- GI50 (SK-MEL-28): 1670 nM
- GI50 (SK-MEL-5): 1520 nM
- GI50 (UACC-62): 1670 nM
- GI50 (IGROV-1): 2140 nM
- GI50 (OVCAR-8): 2380 nM
- GI50 (NCI/ADR-RES): 1850 nM
- GI50 (786-0): 2090 nM
- GI50 (A498): 1370 nM
- GI50 (ACHN): 2700 nM
- GI50 (CAKI-1): 2490 nM
- GI50 (RXF 393): 1520 nM
- GI50 (TK-10): 2850 nM
- GI50 (PC-3): 1850 nM
- GI50 (DU-145): 2650 nM
- GI50 (MCF7): 1910 nM
- GI50 (MDA-MB-231): 2320 nM
- GI50 (Hs-578T): 1890 nM
- GI50 (BT-549): 1840 nM
- GI50 (T47D): 2220 nM
- inhibition [1]: 100%
- inhibition [2]: 99.1%
- IC50 [3]: 80.3 nM

Structure (SMILES): CC(C)(C)n1cc(-c2ccnc(NCCCNS(=O)(=O)c3ccc(Cl)cc3)c2)c(-c2cccc(O)c2)n1
- GI50 (CCRF-CEM): 2130 nM
- GI50 (HL-60(TB)): 2510 nM
- GI50 (MOLT-4): 1910 nM
- GI50 (A549): 1970 nM
- GI50 (EKVX): 2040 nM
- GI50 (HOP-92): 1490 nM
- GI50 (NCI-H226): 2110 nM
- GI50 (NCI-H460): 1940 nM
- GI50 (NCI-H522): 1920 nM
- GI50 (COLO 205): 1660 nM
- GI50 (HCC 2998): 1760 nM
- GI50 (HCT-15): 1520 nM
- GI50 (HT-29): 1440 nM
- GI50 (KM12): 2080 nM
- GI50 (SW-620): 1770 nM
- GI50 (SF-268): 2180 nM
- GI50 (SF-295): 1790 nM
- GI50 (SF-539): 1650 nM
- GI50 (SNB-19): 2180 nM
- GI50 (LOX IMVI): 1730 nM
- GI50 (Malme-3M): 1660 nM
- GI50 (M14): 1720 nM
- GI50 (MDA-MB-435): 1790 nM
- GI50 (SK-MEL-2): 1920 nM
- GI50 (SK-MEL-28): 1570 nM
- GI50 (SK-MEL-5): 1440 nM
- GI50 (UACC-62): 1650 nM
- GI50 (IGROV-1): 1880 nM
- GI50 (OVCAR-8): 2220 nM
- GI50 (NCI/ADR-RES): 1920 nM
- GI50 (786-0): 2030 nM
- GI50 (A498): 1510 nM
- GI50 (ACHN): 1970 nM
- GI50 (CAKI-1): 2060 nM
- GI50 (RXF 393): 1460 nM
- GI50 (TK-10): 2380 nM
- GI50 (PC-3): 1360 nM
- GI50 (DU-145): 2750 nM
- GI50 (MCF7): 1840 nM
- GI50 (MDA-MB-231): 1870 nM
- GI50 (Hs-578T): 1840 nM
- GI50 (BT-549): 1670 nM
- GI50 (T47D): 1820 nM
- inhibition [1]: 100%
- inhibition [2]: 98.9%
- IC50 [3]: 43.8 nM
